Reference: patent US9688683B2, “Substituted condensed pyrimidine compounds” (GRÜNENTHAL GMBH, priority 2013, dated 2017)

Biological target: human PDE4B1 (Homo sapiens (Human), UniProt Q07343)
Assay: cAMP HTRF assay to determine the activity of hPDE4B1
Assay type: biochemical
Details: for IC50: human recombinant PDE4B1 expressed in Sf9 cells, cAMP 40 nM, N=1-2, n=2, read-out: PDE4B IC50-value; for inhibition at 3 µM: inhibition of PDE4B at a test substrate concentration of 3 μM
Protocol: A: Determination of the PDE4B IC50 Values with a cAMP HRTF® Assay to Determine the Activity of hPDE4B1
The inhibiting effect of the compounds on the enzyme activity of human PDE4B1 is measured by the quantification of 5′-AMP, which is formed from 3′,5′-adenosine monophosphate (cAMP). Human recombinant enzyme, expressed in Sf9 cells, and the HTRF (homogeneous time-resolved fluorescence) detection method are used in the assay.
The test compound or water (control) is mixed with the human recombinant PDE4B1 enzyme (4.8 U) in a buffer consisting of 44.4 mM tris-HCl, 5.28 mM MgCl2, 2.64 mM DTT and 0.044% Tween 20 (pH 7.8). After adding the cAMP enzyme substrate (final concentration 40 nM) the mixture is incubated for 30 minutes at room temperature. Then a fluorescence acceptor (Dye2 marked with cAMP), a fluorescence donor (anti-cAMP antibody marked with a europium cryptate) and the non-specific phosphodiesterase inhibitor IBMX (3-isobutyl-1-methylxanthine; final concentration 1 mM) are added. After 60 minutes the fluorescence transfer, which correlates with the amount of remaining cAMP, is measured with a microplate reader (Rubystar, BMG) at λex=337 nm, λem=620 nm and λem=665 nm. The enzyme activity is calculated from the quotient formed from the measured signal at 665 nm and that at 620 nm. The result is expressed as the percentage inhibition of enzyme activity of the control (without PDE4 inhibitor) (literature: N. Saldou et al., Comparison of recombinant human PDE4 isoforms: interaction with substrate and inhibitors, Cell. Signal. Vol. 10, No. 6, 427-440, 1998). The enzyme is omitted for measurement of the basal control.

Chain of human PDE4B1 (Q07343 whole entry): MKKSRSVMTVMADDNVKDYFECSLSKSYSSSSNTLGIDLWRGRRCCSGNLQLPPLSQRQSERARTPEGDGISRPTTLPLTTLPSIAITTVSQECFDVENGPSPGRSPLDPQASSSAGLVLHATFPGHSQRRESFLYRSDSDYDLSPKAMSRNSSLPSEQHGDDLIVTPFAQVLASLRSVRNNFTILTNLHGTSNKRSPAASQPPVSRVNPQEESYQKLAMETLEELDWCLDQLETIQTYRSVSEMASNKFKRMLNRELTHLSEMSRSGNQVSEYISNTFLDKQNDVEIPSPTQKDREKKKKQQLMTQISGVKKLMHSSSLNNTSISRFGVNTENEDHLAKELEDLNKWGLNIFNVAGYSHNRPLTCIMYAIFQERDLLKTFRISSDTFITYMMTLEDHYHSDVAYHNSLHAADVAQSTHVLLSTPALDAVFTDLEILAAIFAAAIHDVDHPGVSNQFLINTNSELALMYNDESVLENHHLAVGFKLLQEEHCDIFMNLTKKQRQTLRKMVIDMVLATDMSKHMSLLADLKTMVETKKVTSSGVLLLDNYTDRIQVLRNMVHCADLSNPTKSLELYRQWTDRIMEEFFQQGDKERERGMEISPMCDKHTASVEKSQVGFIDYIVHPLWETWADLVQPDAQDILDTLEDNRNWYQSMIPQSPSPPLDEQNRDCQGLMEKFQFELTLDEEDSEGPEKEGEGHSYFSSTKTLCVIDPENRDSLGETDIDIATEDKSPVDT

| IC50 [µM] | inhibition at 3 µM [%] | Structure (SMILES) |
| --- | --- | --- |
| < 1 |  | COc1ccc(-c2nc(C)c3c(n2)N(c2ccc(CC(=O)O)cc2)CC3C)cc1F (stereo not shown) [Compound 12, 2,2,2-Trifluoroacetic acid compound with 2-(4-(2-(3-fluoro-4-methoxyphenyl)-4,5-dimethyl-5H-pyrrolo[2,3-d]pyrimidin-7(6H)-yl)phenyl)acetic acid (1:1)] |
| < 1 |  | COc1ccc(-c2nc(C)c3ccn(-c4ccc(CC(=O)O)cc4)c3n2)cc1Cl [Compound 16, 2-(4-(2-(3-Chloro-4-methoxyphenyl)-4-methyl-7H-pyrrolo[2,3-d]pyrimidin-7-yl)phenyl)acetic acid] |
|  | 43 | CCc1nc(-c2ccc(OC)c(F)c2)nc2c1ccn2-c1cccc(OCC(=O)N(C)C)c1 [Compound 85, 2-(3-(4-Ethyl-2-(3-fluoro-4-methoxyphenyl)-7H-pyrrolo[2,3-d]pyrimidin-7-yl)phenoxy)-N,N-dimethylacetamide] |
|  | 51 | CCc1nc(-c2ccc3ncsc3c2)nc2c1ccn2-c1cccc(OCC(=O)N(C)C)c1 [Compound 88, 2-(3-(2-(Benzo[d]thiazol-6-yl)-4-ethyl-7H-pyrrolo[2,3-d]pyrimidin-7-yl)phenoxy)-N,N-dimethylacetamide] |
| < 1 |  | Cc1nc(-c2ccc(Cl)s2)nc2c1CCN2c1ccc(CC(=O)O)cc1 [Compound 39, 2,2,2-Trifluoroacetic acid compound with 2-(4-(2-(5-chlorothiophen-2-yl)-4-methyl-5H-pyrrolo[2,3-d]pyrimidin-7(6H)-yl)phenyl)acetic acid (1:1)] |
| 1 to 10 |  | COc1ccc(-c2nc(C)c3c(n2)N(c2cccc(OCC(=O)N(C)C)c2)CC32CC2)cc1F [Compound 79, 2-(3-(2′-(3-fluoro-4-methoxyphenyl)-4′-methylspiro-[cyclopropane-1,5′-pyrrolo[2,3-d]pyrimidin]-7′(6′H)-yl)phenoxy)-N,N-dimethylacetamide] |
| < 1 |  | CCc1nc(-c2ccc(OC)c(Cl)c2)nc2c1CCN2c1ccc(CC(=O)O)cc1 [Compound 21, 2-(4-(2-(3-Chloro-4-methoxyphenyl)-4-ethyl-5H-pyrrolo[2,3-d]pyrimidin-7(6H)-yl)phenyl)acetic acid] |
| 1 to 10 |  | COc1ccc(-c2nc(OC)c3ccn(-c4ccc(C(=O)O)cc4)c3n2)cc1Cl [Compound 45, 4-(2-(3-chloro-4-methoxyphenyl)-4-methoxy-7H-pyrrolo[2,3-d]pyrimidin-7-yl)benzoic acid] |
|  | 57 | CCc1nc(-c2ccc3ncsc3c2)nc2c1CCN2c1ccc(CC(=O)O)cc1 [Compound 93, 2-(4-(2-(Benzo[d]thiazol-6-yl)-4-ethyl-5H-pyrrolo[2,3-d]pyrimidin-7(6H)-yl)phenyl)acetic acid] |
| < 1 |  | COc1ccc(-c2nc(C)c3ccn(-c4ccc(C(=O)O)cc4)c3n2)cc1Cl [Compound 14, 4-(2-(3-Chloro-4-methoxyphenyl)-4-methyl-7H-pyrrolo[2,3-d]pyrimidin-7-yl)benzoic acid] |
| < 1 |  | Cc1nc(-c2ccc(F)c(F)c2)nc2c1ccn2-c1ccc(C(=O)O)cc1 [Compound 26, 4-(2-(3,4-Difluorophenyl)-4-methyl-7H-pyrrolo[2,3-d]pyrimidin-7-yl)benzoic acid] |
| 1 to 10 |  | CCc1nc(-c2ccc(OC)c(F)c2)nc2c1CCN2c1cccc(OCC(=O)NC2COC2)c1 [Compound 47, 2-(3-(4-ethyl-2-(3-fluoro-4-methoxyphenyl)-5H-pyrrolo[2,3-d]pyrimidin-7(6H)-yl)phenoxy)-N-(oxetan-3-yl)acetamide] |
|  | 67 | CCc1nc(-c2ccc(OC)c(Cl)c2)nc2c1ccn2-c1cccc(OCC(=O)N(C)C)c1 [Compound 92, 2-(3-(2-(3-Chloro-4-methoxyphenyl)-4-ethyl-7H-pyrrolo[2,3-d]pyrimidin-7-yl)phenoxy)-N,N-dimethylacetamide] |
|  | 52 | CCc1nc(-c2ccc(S(C)(=O)=O)cc2)nc2c1ccn2-c1cccc(OCC(=O)N(C)C)c1 [Compound 91, 2-(3-(4-Ethyl-2-(4-(methylsulfonyl)phenyl)-7H-pyrrolo[2,3-d]pyrimidin-7-yl)phenoxy)-N,N-dimethylacetamide] |
|  | 54 | CCc1nc(-c2ccc(OC)cc2)nc2c1ccn2-c1cccc(OCC(=O)N(C)C)c1 [Compound 94, 2-(3-(4-Ethyl-2-(4-methoxyphenyl)-7H-pyrrolo[2,3-d]pyrimidin-7-yl)phenoxy)-N,N-dimethylacetamide] |
| < 1 |  | CCc1nc(-c2cccnc2)nc2c1ccn2-c1cccc(OCC(=O)N(C)C)c1 [Compound 83, 2-(3-(4-ethyl-2-(pyridin-3-yl)-7H-pyrrolo[2,3-d]pyrimidin-7-yl)phenoxy)-N,N-dimethylacetamide] |
